# Measured values from PubChem BioAssay (NCI).
#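 Interpolation was linear, between the two tested concentrations surrounding the appropriate level; five concentrations were tested over 48 hours in 96-well plates. GI50 = concentration required for 50% inhibition of growth. TGI: total growth inhibition.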
# How the values were obtained:
# Assay in all cases: inhibition of tumour cell growth, NCI panel, 48 h
# [1] = tested on: TK-10 renal
# [2] = tested on: UACC-62 melanoma
# [3] = tested on: COLO 205 colon
# [4] = tested on: OVCAR-8 ovarian
# [5] = tested on: UACC-257 melanoma
# [6] = tested on: A498 renal
# [7] = tested on: EKVX NSCLC
# [8] = tested on: T-47D breast
# [9] = tested on: MCF7 breast
# [10] = tested on: MDA-MB-435
Structure (SMILES),TGI [1],TGI [2],TGI [3],TGI [4],TGI [5],TGI [6],TGI [7],GI50 [8],TGI [8],GI50 [1],GI50 [3],GI50 [9],TGI [9],GI50 [4],GI50 [5],GI50 [10],TGI [10],GI50 [6],GI50 [7],GI50 [2]
Cc1cc(N(CCC#N)CCC#N)ccc1/C=C1/N=C(c2ccccc2)N(N)C1=O,> 100 µM,> 100 µM,> 100 µM,> 100 µM,> 100 µM,> 100 µM,> 100 µM,–,–,–,–,–,–,–,–,–,–,–,–,–
CC1CN1c1c(C(=O)/C=C/c2ccccc2)c(-c2ccccc2)nn(C)c1=O (stereo not given),61.4 µM,36.6 µM,29.7 µM,41 µM,36.4 µM,32.4 µM,48.2 µM,–,–,–,–,–,–,–,–,–,–,–,–,–
CCCCn1c(=O)c2c(nc3n2CCCN3CCc2ccc(OCC(=O)NCCN(CC)CC)cc2)n(CCCC)c1=O,14.6 µM,–,7.38 µM,26.4 µM,2.16 µM,2.51 µM,11.7 µM,4.3 µM,13.7 µM,7.26 µM,1.78 µM,1.95 µM,8.97 µM,7.1 µM,1.02 µM,5.08 µM,11.1 µM,0.54 µM,5.2 µM,–
CNS(=O)(=O)NNS(=O)(=O)c1ccc(Cl)cc1,> 100 µM,> 100 µM,> 100 µM,> 100 µM,> 100 µM,> 100 µM,> 100 µM,–,–,–,–,–,–,–,–,–,–,–,–,–
COC12c3ccccc3-c3ccccc3C1[C@H]1C(=O)OC(=O)[C@H]12 (stereo not given in full),> 10 µM,–,> 10 µM,> 10 µM,> 10 µM,> 10 µM,> 10 µM,–,> 10 µM,–,–,–,> 10 µM,–,–,–,> 10 µM,–,–,–
COc1ccc(/C=N/NC(=O)Cn2c(-c3ccc(S(C)(=O)=O)cc3)nc3cc(Cl)ccc32)cc1,> 50 µM,> 50 µM,2.42 µM,> 50 µM,> 50 µM,3.65 µM,> 50 µM,3.22 µM,> 50 µM,4.7 µM,0.907 µM,1.92 µM,> 50 µM,1.79 µM,> 50 µM,–,–,0.79 µM,2.51 µM,0.709 µM
CCN(Cc1ccc(Cl)s1)c1ccc(CO)c(Cl)c1,0.221 µM,0.438 µM,5.99 µM,27.6 µM,0.298 µM,0.189 µM,–,0.121 µM,0.582 µM,0.0452 µM,1.73 µM,0.119 µM,12.3 µM,5.75 µM,0.0898 µM,20.3 µM,59 µM,0.0495 µM,–,0.0861 µM
Cc1c(C2=C(c3cn(C)c4ccccc34)C(=O)NC2=O)c2ccccc2n1C,> 25 µM,> 25 µM,> 25 µM,> 25 µM,> 25 µM,11.2 µM,–,4.07 µM,> 25 µM,6 µM,1.51 µM,0.997 µM,> 25 µM,10.8 µM,> 25 µM,–,–,1.91 µM,–,1.95 µM
